Source: patent publication US20160312309A1 (Millennium Pharmaceuticals, Inc., priority 2008, published 2016)

Experiments:
[1] = system: relapsed multiple myeloma; assay: Response in pharmacogenomic portion of the studies; format: in vivo, human; conditions: for CR, number of patients / IE, number of patients / MR, number of patients / NC, number of patients / PD, number of patients / PR, number of patients: pharmacogenomic patients, study 039; for CR+PR rate / overall response rate: pharmacogenomic set of patients
Description: Patient samples and response criteria from patients participating in these studies, as well as the following additional studies described below were sought for use in pharmacogenomic analyses to identify markers associated with patient survival. The samples were derived from the trials as described in Table 3 and in the following paragraphs.
For those patients who participated in the pharmacogenomic portion of the study, Table 6 summarizes the response rates and Table 7 summarizes the patients evaluated for survival. […]

[2] = system: nuclear factor-κB (NF-κB) activation; conditions: cited from earlier work
[3] = system: cells that over express B-cell lymphoma 2 (Bcl-2); conditions: cells that over express Bcl-2; cited from earlier work
xenograft tumor models = conditions: variety of xenograft tumor models; cited from earlier work
[4] = system: relapsed and refractory myeloma; assay: SUMMIT phase 2 trial (025); format: in vivo, human; conditions: Study 025, bortezomib alone
Description: (§1) Dexamethasone is a synthetic adrenocorticosteroid, CAS Registry No. 312-93-6, administered as tablets (DECADRON® Merck & Co., Inc.). 024: The CREST phase 2 trial (024) of either relapsed or refractory disease (subjects with first relapse, Jagannath et al. (2004) Br. J. Haematol. 127:165-172). […] 025: The SUMMIT phase 2 trial of patients with relapsed and refractory myeloma (subjects with second or greater relapse and refractory to their last prior therapy, Richardson P G, et al. (2003) N. Engl. J. Med. 348:2609-2617). […] Patients who received dexamethasone were treated for a maximum of 280 days by the following method: received up to four 5-week treatment cycles, followed by up to five 4-week treatment cycles. Within each 5-week treatment cycle, the patient received dexamethasone 40 mg/day PO, once daily on Days 1 to 4, 9 to 12, and 17 to 20 of a 35-day cycle. Within each 4-week treatment cycle, the patient received dexamethasone 40 mg/day PO once daily on Days 1 to 4 of a 28 day cycle. 040: Companion trial to 039 for patients who had more than 3 prior therapies. […] An additional 240 patients not from the −039 study, but who received at least 4 prior therapies also enrolled in this study.

[5] = system: relapsed or refractory multiple myeloma; assay: APEX phase 3 trial (039); format: in vivo, human; conditions: for Median duration of response / Median time to response / One-year survival / complete response / complete response plus near-complete response / complete response, number of patients: 039; for response rate (complete plus partial response (CR+PR)): 039, EBMT criteria; for CR + PR + MR, (%) / Complete Response, (%) / Minor Response, (%) / Near CR: IF+, (%) / No Change, (%) / Not Evaluable, (%) / Overall Response Rate (CR + PR), (%) / Partial Response, (%) / Progressive Disease, (%) / SWOG Remission, (%): best confirmed response, N = 627
Description: as §1
The following section presents more detailed information on the −039 trial. During the study, disease response was assessed according to the European Group for Blood and Marrow Transplant (EBMT) criteria as presented in Table 4.
Response and date of disease progression was determined by computer algorithm that integrated data from a central laboratory and case report forms from each clinical site, according to the Blade criteria (Table 4). […] See Richardson et al., supra.
Disease progression was determined by Blade criteria as described in Table 4 and above. […] The date of progression was determined by computer algorithm. P-value from log-rank test adjusted by actual randomization factors. See Richardson et al., supra.

[6] = system: relapsed multiple myeloma; assay: CREST phase 2 trial (024); format: in vivo, human
Description: as §1

myeloma cells = conditions: independent of their p53 status; cited from earlier work
[7] = difference in rates, bortezomib vs dexamethasone
[8] = difference in response rates, bortezomib vs dexamethasone

CC(C)C[C@H](NC(=O)[C@H](Cc1ccccc1)NC(=O)c1cnccn1)B(O)O [bortezomib, N (pyrazine)carbonyl-L-phenylalanine-L-leucine boronic acid]
CR, number of patients [1]: 5
IE, number of patients [1]: 9
MR, number of patients [1]: 5
NC, number of patients [1]: 19
PD, number of patients [1]: 13
PR, number of patients [1]: 25
CR+PR rate [1]: 32%
overall response rate [1]: 42.3%
NF-κB activation [2]: inhibits
apoptosis [3]: induces apoptosis
cytotoxic activity in xenograft tumor models (xenograft tumor models): cytotoxic activity
CR+PR rate [4]: 27%
overall response rate (CR+PR+minimal response (MR)) [4]: 35%
CR+PR, number of patients ([4]; of 193 patients): 53 patients
overall response (CR+PR+MR), number of patients ([4]; of 193 patients): 67 patients
Median duration of response [5]: 8 months
Median time to response [5]: 43 days
One-year survival [5]: 80%
complete response [5]: 6%
complete response plus near-complete response [5]: 13%
complete response, number of patients [5]: 20 patients
response rate (complete plus partial response (CR+PR)) [5]: 38%
CR + PR + MR, (%) [5]: (46) %
Complete Response, (%) [5]: (6) %
Minor Response, (%) [5]: (8) %
Near CR: IF+, (%) [5]: (7) %
No Change, (%) [5]: (43) %
Not Evaluable, (%) [5]: (3) %
Overall Response Rate (CR + PR), (%) [5]: (38) %
Partial Response, (%) [5]: (32) %
Progressive Disease, (%) [5]: (7) %
SWOG Remission, (%) [5]: (15) %
No Change, Difference [5, 7]: −0.04
Not Evaluable, Difference [5, 7]: −0.01
Progressive Disease, Difference [5, 7]: −0.06
CR + PR + MR, Difference [5, 8]: 0.12
Complete Response, Difference [5, 8]: 0.06
Minor Response, Difference [5, 8]: −0.09
Near CR: IF+, Difference [5, 8]: 0.06
Overall Response Rate (CR + PR), Difference [5, 8]: 0.20
Partial Response, Difference [5, 8]: 0.15
SWOG Remission, Difference [5, 8]: 0.09
decrease in risk of death ([5]; first year after enrollment, bortezomib group vs dexamethasone): 41%
complete response (CR)+partial response (PR) rate ([6]; Study 024, bortezomib 1.0 mg/m^2): 30%
complete response (CR)+partial response (PR) rate ([6]; Study 024, bortezomib 1.3 mg/m^2): 38%
cytotoxicity to myeloma cells in culture (myeloma cells): directly cytotoxic

C[C@@H]1C[C@H]2[C@@H]3CCC4=CC(=O)C=C[C@]4(C)[C@@]3(F)[C@@H](O)C[C@]2(C)[C@@]1(O)C(=O)CO [dexamethasone, Dexamethasone]
CR, number of patients [1]: 1
IE, number of patients [1]: 6
MR, number of patients [1]: 11
NC, number of patients [1]: 16
PD, number of patients [1]: 22
PR, number of patients [1]: 13
CR+PR rate [1]: 22.2%
overall response rate [1]: 39.7%
Median duration of response [5]: 5.6 months
Median time to response [5]: 43 days
One-year survival [5]: 66%
complete response [5]: < 1%
complete response plus near-complete response [5]: 2%
complete response, number of patients [5]: 2 patients
response rate (complete plus partial response (CR+PR)) [5]: 18%
CR + PR + MR, (%) [5]: (35) %
Complete Response, (%) [5]: (<1) %
Minor Response, (%) [5]: (17) %
Near CR: IF+, (%) [5]: (<1) %
No Change, (%) [5]: (48) %
Not Evaluable, (%) [5]: (4) %
Overall Response Rate (CR + PR), (%) [5]: (18) %
Partial Response, (%) [5]: (17) %
Progressive Disease, (%) [5]: (13) %
SWOG Remission, (%) [5]: (5) %
